Values quoted from earlier work as cited in US20200323813A1, “TREATMENT OF VIRAL HEMORRHAGIC FEVERS WITH COX-2 SELECTIVE NON-STEROIDAL ANTI-INFLAMMATORY DRUGS” (Tremeau Pharmaceuticals, Inc., priority 2019, published 2020).

How the values were obtained:
[1] = oral once daily product
[2] = test system: platelet aggregation or bleeding time; details: doses up to 375 mg/day
[3] = versus non-selective NSAIDs

**Q.** Which “COX-2 versus COX-1 selectivity” value (COX-2 versus COX-1) does the source give for `CS(=O)(=O)c1ccc(C2=C(c3ccccc3)C(=O)OC2)cc1` [Rofecoxib, 4-[4-(methylsulfonyl)phenyl]-3-phenyl-2(5H)-furanone] here?
**A.** The value was 35 fold.

**Q.** What about the half-live [1] of the same compound?
**A.** The half-live was “approximately 17 hours”.

**Q.** What about the “effect on bleeding time” value [2] of the same compound?
**A.** The value was “not affect”.

**Q.** And the “effect on platelet aggregation” value [2]?
**A.** The value was “not affect”.

**Q.** What about the “GI tolerability and safety events” value [3] of the same compound?
**A.** The value was “significant improvements”.

**Q.** And the “median onset of action” value (acute pain settings)?
**A.** Its value is 45 min.

**Q.** And the “sustained efficacy (duration)” value (single dose)?
**A.** Its value is 24 h.
